Experimental data taken from article PMC4490784, “Compensatory induction of MYC expression by sustained CDK9 inhibition via a BRD4-dependent mechanism” (eLife, 2015).

Legend:
Assay in all cases: biochemical binding or enzymatic assay
ZAP70 = target: T1, ZAP70 (Homo sapiens, UniProt P43403)
T1 construct: purchased DiscoveRx KINOMEscan
T1 sequence (P43403 1-619): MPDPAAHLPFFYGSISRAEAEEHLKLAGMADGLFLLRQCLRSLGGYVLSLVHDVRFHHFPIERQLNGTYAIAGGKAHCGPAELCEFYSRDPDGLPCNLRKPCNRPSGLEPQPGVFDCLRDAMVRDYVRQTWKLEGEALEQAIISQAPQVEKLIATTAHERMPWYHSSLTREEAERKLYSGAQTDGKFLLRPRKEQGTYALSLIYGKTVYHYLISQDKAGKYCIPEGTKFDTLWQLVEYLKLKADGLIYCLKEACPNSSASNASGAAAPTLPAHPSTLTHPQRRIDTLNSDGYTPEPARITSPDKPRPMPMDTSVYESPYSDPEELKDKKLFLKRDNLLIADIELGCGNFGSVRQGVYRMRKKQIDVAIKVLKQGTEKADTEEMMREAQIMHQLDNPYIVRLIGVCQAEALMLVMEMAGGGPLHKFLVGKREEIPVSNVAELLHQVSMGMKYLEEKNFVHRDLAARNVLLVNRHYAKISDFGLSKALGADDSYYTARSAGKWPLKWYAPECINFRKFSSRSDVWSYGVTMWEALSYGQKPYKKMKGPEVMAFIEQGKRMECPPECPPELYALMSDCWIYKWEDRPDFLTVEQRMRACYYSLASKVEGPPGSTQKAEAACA
Procedure: (§1) Finally, the selectivity profile of i-CDK9 toward other non-CDK kinases was also assessed using the KINOMEscan platform. […] Except for CLK4, for which no suitable assay was available, the rest of the kinases plus a selected group of others were re-examined for the concentration-dependent effect of i-CDK9 in either functional kinase assays or binding assays. […] Indeed, it has recently been reported that DYRK1A acts as a Pol II CTD Kinase at its target gene promoters ([Di Vona et al., 2015]).

FYN = target: T2, FYN (Homo sapiens, UniProt P06241); conditions: Novartis
T2 construct: purchased DiscoveRx KINOMEscan
T2 sequence (P06241 whole entry): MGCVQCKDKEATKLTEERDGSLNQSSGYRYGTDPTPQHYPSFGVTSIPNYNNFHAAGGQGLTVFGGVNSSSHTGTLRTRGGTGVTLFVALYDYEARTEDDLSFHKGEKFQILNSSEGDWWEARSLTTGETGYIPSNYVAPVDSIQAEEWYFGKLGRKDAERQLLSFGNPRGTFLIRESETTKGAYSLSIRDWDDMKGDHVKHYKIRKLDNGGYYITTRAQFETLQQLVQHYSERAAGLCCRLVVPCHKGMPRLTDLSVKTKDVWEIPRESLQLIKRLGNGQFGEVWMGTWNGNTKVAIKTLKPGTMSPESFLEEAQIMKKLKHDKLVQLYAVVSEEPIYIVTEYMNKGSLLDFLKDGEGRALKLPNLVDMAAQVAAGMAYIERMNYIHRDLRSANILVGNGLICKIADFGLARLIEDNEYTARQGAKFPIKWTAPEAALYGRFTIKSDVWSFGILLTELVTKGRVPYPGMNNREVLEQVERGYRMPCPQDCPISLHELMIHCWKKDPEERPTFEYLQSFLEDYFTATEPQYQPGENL
Procedure: as §1

EPHA4 = target: T3, EPHA4 (Homo sapiens, UniProt P54764); conditions: Novartis
T3 construct: purchased DiscoveRx KINOMEscan
T3 sequence (P54764 20-986): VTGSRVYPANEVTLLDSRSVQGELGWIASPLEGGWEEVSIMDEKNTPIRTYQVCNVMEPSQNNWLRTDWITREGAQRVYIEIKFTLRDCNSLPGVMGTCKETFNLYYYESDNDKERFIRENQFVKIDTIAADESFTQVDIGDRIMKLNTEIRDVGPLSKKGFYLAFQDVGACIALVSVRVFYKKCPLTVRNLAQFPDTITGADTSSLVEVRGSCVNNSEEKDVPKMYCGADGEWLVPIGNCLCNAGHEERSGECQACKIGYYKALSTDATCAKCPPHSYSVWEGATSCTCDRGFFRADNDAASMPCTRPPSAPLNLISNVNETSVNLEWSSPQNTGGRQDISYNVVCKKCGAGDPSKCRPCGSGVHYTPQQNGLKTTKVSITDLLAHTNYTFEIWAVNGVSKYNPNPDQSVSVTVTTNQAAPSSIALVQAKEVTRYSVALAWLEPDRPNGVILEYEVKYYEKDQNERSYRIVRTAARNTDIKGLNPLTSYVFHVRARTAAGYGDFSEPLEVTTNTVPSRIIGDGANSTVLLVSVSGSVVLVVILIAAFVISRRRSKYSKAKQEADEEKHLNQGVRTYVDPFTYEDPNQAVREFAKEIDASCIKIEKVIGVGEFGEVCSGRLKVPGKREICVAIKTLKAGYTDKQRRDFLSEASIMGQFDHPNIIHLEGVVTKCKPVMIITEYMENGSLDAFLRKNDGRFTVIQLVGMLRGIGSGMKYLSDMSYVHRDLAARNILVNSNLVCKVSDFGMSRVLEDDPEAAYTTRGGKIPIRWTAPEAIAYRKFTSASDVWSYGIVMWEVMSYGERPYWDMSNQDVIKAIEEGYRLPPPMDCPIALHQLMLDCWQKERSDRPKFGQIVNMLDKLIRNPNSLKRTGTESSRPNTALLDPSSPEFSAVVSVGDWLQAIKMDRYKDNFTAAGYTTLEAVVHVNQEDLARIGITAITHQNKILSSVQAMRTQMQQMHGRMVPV
Procedure: as §1

TAOK3 = target: T4, TAOK3 (Homo sapiens, UniProt Q9H2K8); conditions: Millipore
T4 construct: purchased DiscoveRx KINOMEscan
T4 sequence (Q9H2K8 1-898): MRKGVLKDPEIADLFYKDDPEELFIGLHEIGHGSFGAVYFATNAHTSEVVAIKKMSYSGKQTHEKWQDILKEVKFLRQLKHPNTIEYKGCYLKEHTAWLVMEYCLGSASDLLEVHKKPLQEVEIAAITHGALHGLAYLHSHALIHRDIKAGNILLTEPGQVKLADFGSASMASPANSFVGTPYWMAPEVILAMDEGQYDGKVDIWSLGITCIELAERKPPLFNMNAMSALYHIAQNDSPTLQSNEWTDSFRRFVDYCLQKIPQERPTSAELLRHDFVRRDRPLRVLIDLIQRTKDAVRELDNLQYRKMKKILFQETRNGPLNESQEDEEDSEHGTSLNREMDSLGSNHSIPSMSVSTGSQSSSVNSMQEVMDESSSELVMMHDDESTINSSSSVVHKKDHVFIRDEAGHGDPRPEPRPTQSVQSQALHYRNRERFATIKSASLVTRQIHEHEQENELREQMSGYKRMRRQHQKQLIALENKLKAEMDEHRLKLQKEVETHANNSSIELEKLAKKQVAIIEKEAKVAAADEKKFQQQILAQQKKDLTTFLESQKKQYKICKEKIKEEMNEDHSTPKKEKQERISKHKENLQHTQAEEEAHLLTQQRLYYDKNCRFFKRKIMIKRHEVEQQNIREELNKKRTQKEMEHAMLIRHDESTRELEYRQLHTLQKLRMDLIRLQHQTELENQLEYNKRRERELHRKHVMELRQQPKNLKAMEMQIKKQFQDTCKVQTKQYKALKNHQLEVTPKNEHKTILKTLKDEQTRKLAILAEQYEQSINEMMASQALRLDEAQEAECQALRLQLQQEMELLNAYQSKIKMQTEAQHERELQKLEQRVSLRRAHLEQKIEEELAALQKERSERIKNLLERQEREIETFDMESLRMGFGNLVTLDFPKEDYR
Procedure: as §1

RET = target: T5, RET (Homo sapiens, UniProt P07949); conditions: Novartis
T5 construct: purchased DiscoveRx KINOMEscan
Procedure: as §1

IRAK4 = IRAK4 (Homo sapiens, UniProt Q9NWZ3); conditions: Novartis
IRAK4, sequence (Q9NWZ3 whole entry): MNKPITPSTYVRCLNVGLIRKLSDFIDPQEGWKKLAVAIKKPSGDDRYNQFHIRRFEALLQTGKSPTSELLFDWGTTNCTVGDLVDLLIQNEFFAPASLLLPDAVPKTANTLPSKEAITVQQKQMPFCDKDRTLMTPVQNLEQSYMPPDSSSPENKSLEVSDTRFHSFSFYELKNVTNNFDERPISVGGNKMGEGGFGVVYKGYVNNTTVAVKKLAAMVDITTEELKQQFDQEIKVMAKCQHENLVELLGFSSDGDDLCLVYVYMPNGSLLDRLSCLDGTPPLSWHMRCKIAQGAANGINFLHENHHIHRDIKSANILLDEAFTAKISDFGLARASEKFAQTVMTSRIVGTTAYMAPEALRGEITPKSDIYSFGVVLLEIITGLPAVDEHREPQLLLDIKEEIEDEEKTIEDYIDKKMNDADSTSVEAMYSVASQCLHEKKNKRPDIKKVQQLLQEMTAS
Procedure: as §1

MAPKAPK5 = target: T6, MAPKAPK5 (Homo sapiens, UniProt Q8IW41); conditions: Novartis
T6 construct: purchased DiscoveRx KINOMEscan
T6 sequence (Q8IW41 1-473): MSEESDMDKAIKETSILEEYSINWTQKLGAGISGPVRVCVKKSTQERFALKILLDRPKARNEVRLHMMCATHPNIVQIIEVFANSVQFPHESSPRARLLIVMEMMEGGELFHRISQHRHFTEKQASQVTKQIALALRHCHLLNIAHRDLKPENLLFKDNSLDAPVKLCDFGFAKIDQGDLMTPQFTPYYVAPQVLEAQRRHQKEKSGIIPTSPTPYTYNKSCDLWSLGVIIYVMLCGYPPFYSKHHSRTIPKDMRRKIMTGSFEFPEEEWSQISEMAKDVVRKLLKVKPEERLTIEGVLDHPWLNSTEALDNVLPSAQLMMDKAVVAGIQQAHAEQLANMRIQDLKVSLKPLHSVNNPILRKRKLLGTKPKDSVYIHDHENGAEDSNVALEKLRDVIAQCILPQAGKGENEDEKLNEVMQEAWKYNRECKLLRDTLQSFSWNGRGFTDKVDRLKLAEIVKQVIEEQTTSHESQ
Procedure: as §1

PKN2 = target: T7, PKN2 (Homo sapiens, UniProt Q16513); conditions: Novartis
T7 construct: purchased DiscoveRx KINOMEscan
T7 sequence (Q16513 whole entry): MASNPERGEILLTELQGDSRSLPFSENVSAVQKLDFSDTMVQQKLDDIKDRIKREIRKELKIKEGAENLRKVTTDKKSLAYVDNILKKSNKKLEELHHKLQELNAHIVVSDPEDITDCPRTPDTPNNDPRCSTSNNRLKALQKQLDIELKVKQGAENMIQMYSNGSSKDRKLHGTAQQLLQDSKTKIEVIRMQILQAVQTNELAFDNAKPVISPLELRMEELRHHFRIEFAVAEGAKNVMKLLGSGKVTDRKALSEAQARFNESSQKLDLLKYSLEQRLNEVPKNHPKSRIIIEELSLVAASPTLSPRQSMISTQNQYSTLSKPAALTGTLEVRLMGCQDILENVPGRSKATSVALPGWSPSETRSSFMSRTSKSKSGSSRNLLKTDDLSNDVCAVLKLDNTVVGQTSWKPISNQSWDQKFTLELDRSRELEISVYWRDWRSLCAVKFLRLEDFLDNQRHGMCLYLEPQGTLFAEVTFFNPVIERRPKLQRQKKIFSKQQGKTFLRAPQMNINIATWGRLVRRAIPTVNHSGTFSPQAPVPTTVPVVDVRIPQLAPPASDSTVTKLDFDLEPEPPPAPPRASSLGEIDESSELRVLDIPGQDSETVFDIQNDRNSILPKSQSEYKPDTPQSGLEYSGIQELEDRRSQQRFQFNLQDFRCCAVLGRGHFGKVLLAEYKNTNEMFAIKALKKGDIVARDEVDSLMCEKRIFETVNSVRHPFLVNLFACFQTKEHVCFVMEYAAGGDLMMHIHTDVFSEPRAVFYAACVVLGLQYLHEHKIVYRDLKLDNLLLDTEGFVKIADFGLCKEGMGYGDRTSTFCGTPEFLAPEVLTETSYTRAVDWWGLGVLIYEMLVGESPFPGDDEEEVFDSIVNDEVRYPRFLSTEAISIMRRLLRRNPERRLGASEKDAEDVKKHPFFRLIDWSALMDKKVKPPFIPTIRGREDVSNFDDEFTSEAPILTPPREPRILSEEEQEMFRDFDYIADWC
Procedure: as §1

YES = target: T8, YES (Homo sapiens, UniProt P07947); conditions: Novartis
T8 construct: purchased DiscoveRx KINOMEscan
T8 sequence (P07947 whole entry): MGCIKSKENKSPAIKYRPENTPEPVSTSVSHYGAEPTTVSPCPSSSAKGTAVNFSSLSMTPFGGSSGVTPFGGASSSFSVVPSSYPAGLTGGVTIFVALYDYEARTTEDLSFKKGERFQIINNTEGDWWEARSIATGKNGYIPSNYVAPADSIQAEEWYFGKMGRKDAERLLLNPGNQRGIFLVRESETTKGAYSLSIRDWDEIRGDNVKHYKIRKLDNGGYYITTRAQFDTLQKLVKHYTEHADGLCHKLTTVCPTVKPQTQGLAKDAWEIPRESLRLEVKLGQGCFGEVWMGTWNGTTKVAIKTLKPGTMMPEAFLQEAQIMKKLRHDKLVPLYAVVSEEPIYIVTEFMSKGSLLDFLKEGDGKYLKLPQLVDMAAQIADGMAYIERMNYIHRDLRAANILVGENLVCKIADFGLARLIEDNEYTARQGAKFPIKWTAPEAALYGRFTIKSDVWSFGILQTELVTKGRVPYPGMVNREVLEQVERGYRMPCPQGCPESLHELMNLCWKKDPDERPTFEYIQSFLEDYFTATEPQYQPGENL
Procedure: as §1

CAMK2D = target: T9, CAMK2D (Homo sapiens, UniProt Q13557); conditions: Novartis
T9 construct: purchased DiscoveRx KINOMEscan
T9 sequence (Q13557 whole entry): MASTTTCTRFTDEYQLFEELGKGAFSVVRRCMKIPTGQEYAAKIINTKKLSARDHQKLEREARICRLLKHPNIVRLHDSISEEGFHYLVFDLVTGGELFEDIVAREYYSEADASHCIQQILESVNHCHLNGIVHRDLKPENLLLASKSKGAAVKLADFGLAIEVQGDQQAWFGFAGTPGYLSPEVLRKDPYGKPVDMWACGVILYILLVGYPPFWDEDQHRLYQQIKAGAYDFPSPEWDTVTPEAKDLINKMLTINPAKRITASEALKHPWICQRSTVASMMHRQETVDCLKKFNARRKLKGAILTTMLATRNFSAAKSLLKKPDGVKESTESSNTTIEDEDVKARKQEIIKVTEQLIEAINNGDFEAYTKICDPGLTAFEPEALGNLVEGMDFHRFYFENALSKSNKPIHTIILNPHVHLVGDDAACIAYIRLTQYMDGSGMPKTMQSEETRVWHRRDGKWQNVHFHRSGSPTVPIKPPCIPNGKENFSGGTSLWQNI
Procedure: as §1

SRC = target: T10, SRC (Homo sapiens, UniProt P12931); conditions: Novartis
T10 construct: purchased DiscoveRx KINOMEscan
Procedure: as §1

AKT1 = target: T11, AKT1 (Homo sapiens, UniProt P31749); conditions: Novartis
T11 construct: purchased DiscoveRx KINOMEscan
T11 sequence (P31749 whole entry): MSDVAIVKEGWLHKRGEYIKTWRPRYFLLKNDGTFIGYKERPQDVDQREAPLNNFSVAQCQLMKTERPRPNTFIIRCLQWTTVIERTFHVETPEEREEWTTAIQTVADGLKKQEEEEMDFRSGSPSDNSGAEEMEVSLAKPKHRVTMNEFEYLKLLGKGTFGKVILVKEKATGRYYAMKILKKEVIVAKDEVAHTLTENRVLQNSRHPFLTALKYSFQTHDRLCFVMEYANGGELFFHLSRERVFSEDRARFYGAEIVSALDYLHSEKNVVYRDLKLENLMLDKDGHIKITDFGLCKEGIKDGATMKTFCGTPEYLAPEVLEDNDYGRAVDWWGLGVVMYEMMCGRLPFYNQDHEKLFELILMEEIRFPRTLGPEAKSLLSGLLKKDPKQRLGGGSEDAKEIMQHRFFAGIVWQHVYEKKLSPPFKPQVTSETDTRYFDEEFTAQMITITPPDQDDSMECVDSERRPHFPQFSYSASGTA
Procedure: as §1

CSNK1G3 = target: T12, CSNK1G3 (Homo sapiens, UniProt Q9Y6M4); conditions: Novartis
T12 construct: purchased DiscoveRx KINOMEscan
Procedure: as §1

LCK = target: T13, LCK (Homo sapiens, UniProt P06239); conditions: Novartis
T13 construct: purchased DiscoveRx KINOMEscan
T13 sequence (P06239 whole entry): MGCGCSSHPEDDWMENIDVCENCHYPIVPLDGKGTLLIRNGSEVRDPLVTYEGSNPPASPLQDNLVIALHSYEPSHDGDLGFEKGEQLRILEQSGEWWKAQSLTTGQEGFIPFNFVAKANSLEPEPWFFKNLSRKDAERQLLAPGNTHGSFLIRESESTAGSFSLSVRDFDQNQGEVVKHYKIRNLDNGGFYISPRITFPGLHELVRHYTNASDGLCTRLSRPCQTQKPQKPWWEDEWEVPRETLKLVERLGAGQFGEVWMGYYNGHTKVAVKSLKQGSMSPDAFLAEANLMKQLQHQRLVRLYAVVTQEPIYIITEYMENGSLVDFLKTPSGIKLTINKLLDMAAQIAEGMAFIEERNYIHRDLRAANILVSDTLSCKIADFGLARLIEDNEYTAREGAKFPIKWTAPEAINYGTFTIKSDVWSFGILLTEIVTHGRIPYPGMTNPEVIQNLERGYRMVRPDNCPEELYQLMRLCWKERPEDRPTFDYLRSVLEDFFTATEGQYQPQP
Procedure: as §1

GSK3B = target: T14, GSK3B (Homo sapiens, UniProt P49841); conditions: Novartis
T14 construct: purchased DiscoveRx KINOMEscan
Procedure: as §1

N[C@H]1CC[C@H](Nc2cc(-c3cccc(NCc4cccc(F)c4)n3)c(Cl)cn2)CC1 [i-CDK9, N2′-(trans-4-aminocyclohexyl)-5′-chloro-N6-(3-fluorobenzyl)-2,4′-bipyridine-2′,6-diamine]
IC50 (ZAP70): > 10 µM
IC50 (FYN): > 10 µM
IC50 (EPHA4): > 10 µM
IC50 (TAOK3): 1.08 µM
IC50 (RET): > 10 µM
IC50 (IRAK4): > 10 µM
IC50 (MAPKAPK5): > 10 µM
IC50 (PKN2): > 10 µM
IC50 (YES): > 10 µM
IC50 (CAMK2D): 4 µM
IC50 (SRC): > 10 µM
IC50 (AKT1): > 10 µM
IC50 (CSNK1G3): > 10 µM
IC50 (LCK): > 10 µM
IC50 (GSK3B): 1.6 µM
